Laboratory results reported in patent publication US9834514B2, “Antibiotic sensitivity-restoring and photosensitive agents” (New Mexico Tech Research Foundation, priority 2015, dated 2017).
Converted amounts (≈) assume the structure as drawn. Like-named read-outs stand apart in the source and are kept apart here.

Key:
[1] = tested on: A. baumannii (ATCC 15151); test: MIC against A. baumannii; format: cell-based; conditions: Acinetobacter baumannii, ATCC15151
Description: TABLE 28 details the individual MIC values of compounds 1, 7, 8, 9, 10, 11, PMB, PME, and light against A. baumannii.
(§1) The MICs of PME and compounds 8-11 were determined against A. baumannii (ATCC 15151). […] After incubating the cells with PME, a compound (5 μM) was added, and the samples were further incubated at 37° C. At specific time points, samples were taken and diluted ten-fold in media. Ten microliters of each dilution was then drip-streaked onto an agar plate and incubated overnight at 37° C. Colony counts were then performed, and the CFU/mL were calculated.

VRE (ATCC 51299) = test: Synergy with antibiotics against VRE; format: cell-based, Enterococcus faecalis
Description: For these experiments, overnight cultures of VRE were diluted to about 5×10^5 CFU/mL in TSB. Then, 1 mL of the diluted broth suspension was added to a borosilicate glass culture tube. After appropriate volumes of the compounds were added to the broth suspensions, the samples were mixed using a vortex mixer, and an appropriate volume of an antibiotic was added to the samples. The samples were mixed using a vortex mixer and incubated for 18 hours at 37° C. on a rotary shaking incubator. After 18 hours, the test cultures were diluted ten-fold, and 10 μL of each dilution was drip-streaked onto a TSA plate and incubated for 18 hours at 37° C. Colony counts were then performed and the CFU/mL values were calculated.
TABLE 24 details the MICs of common antibiotics against VRE. In a 12×75 mm borosilicate glass culture tube, 1 mL of cell suspension was added. Then, compound 7 was added to the cells, and the samples were mixed using a vortex mixer. […] The samples were incubated overnight at 37° C. on a rotary shaking incubator at 100 rpm. Inhibition observed visually compared to each individual treatment was considered synergistic.

[2] = MIC against MRSA isolates; format: cell-based, S. aureus; conditions: Staphylococcus aureus
Procedure, shortened: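 Broth microdilution in TSB, ~5×10^5 CFU/mL, two-fold dilutions from 100 μM, overnight at 37 °C shaking 100 rpm.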

WI38 cells = test: Toxicity (IC50) on WI38 cells; format: cell-based; conditions: Homo sapiens, WI-38; normal lung fibroblast WI38 cells
Description: The toxicities of the compounds of the invention were determined for human cancerous cervical epithelium HeLa and normal lung fibroblast WI38 cells. The toxicities of EPIs INF-55 and INF-55Cl were quantified as controls. […] TABLE 2 compares the toxicity of compounds 7-11 on HeLa cells and normal WI38 cells.

S. aureus (ATCC 29213) = test: microbe, parasite or virus in culture; format: cell-based
Description: Each mixture was incubated at 37° C. on a rotary shaking incubator for about 16 hours. MTT was then added to assess the viability of the cells (at 10% well volume). […] The cells were then streaked onto a TSA plate and incubated overnight at 37° C. These steps were repeated to reach a total of 30 exposures.

P. aeruginosa = test: Resensitization to antibiotics (log reduction, TABLE 29); format: cell-based; conditions: compound 20 μM; PME (0.1 μg/mL)
MRSA [3] = test: as above; format: cell-based, S. aureus
[4] = tested on: A. baumannii (ATCC 15151); test: Time course of colony counts with compounds and PME or PMB; format: cell-based
Description: as §1

MRSA (ATCC BAA-44) = test: Synergy with oxacillin and norfloxacin and other antibiotics (colony counts); format: cell-based, S. aureus; conditions: for MICs greater than cells treated with compound alone, with norfloxacin / MICs greater than cells treated with compound alone, with oxacillin: FIGS. 35-38; for Orders of Magnitude with Norfloxacin / Orders of Magnitude with Oxacillin: increase in ability to kill MRSA versus drug or compound alone
Description: The synergy of compounds 1 and 7-11 with oxacillin and norfloxacin was tested against MRSA (ATCC BAA-44). An overnight culture of MRSA was first diluted to about 5×10^5 CFU/mL in TSB. Then, 1 mL of the diluted broth suspension was added to a borosilicate glass culture tube. An appropriate volume of a compound or an antibiotic drug stock was added to the broth suspension and mixed using a vortex mixer. Then an appropriate volume of an antibiotic was added to test synergy with compounds 7-11. The samples were subsequently mixed using a vortex mixer, and the samples were incubated for 18 hours at 37° C. on a rotary shaking incubator. After 18 hours, the test cultures were diluted ten-fold, 10 μL of each dilution was drip-streaked onto a TSA plate, and the samples were incubated for 18 hours at 37° C. Colony counts were then performed and the CFU/mL values were calculated.
TABLE 21 details the MIC values identified in the MRSA assay of compounds 1, 7, 8, 9, 10, 11, various antibiotics, and light.

MRSA [5] = test: Resensitization to antibiotics (log reduction, TABLE 29); format: cell-based, S. aureus; conditions: compound 8 μM; Oxacillin ([…])
Description: In a 96-well microtiter plate, two-fold dilutions were made of each drug (starting with 100 μM) in 100 μL of a cell suspension in TSB. The resulting samples were incubated overnight at 37° C. on a rotary shaking incubator at 100 rpm. The samples were then visually inspected for turbidity. A 20% well volume of MTT reagent (5 mg/mL) was subsequently added, and the samples were incubated for about 20 minutes.

[6] = MRSA (ATCC BAA-44), TABLE 21, read-out: MRSA MIC
[7] = MRSA isolate ATCC 33591, read-out: MIC
[8] = MRSA isolate ATCC BAA-44, read-out: MIC
[9] = MRSA isolate ATCC BAA-1707, read-out: MIC
[10] = MRSA isolate ATCC BAA-1717, read-out: MIC
[11] = MRSA isolate ATCC BAA-1720, read-out: MIC
[12] = MRSA isolate ATCC BAA-1747, read-out: MIC
[13] = MRSA isolate ATCC BAA-1754, read-out: MIC
[14] = MRSA isolate ATCC BAA-1761, read-out: MIC
[15] = MRSA isolate ATCC BAA-1763, read-out: MIC
[16] = MRSA isolate ATCC BAA-1764, read-out: MIC
[17] = MRSA isolate ATCC BAA-1766, read-out: MIC
[18] = (⅓) MIC compound + (¼) MIC Norfloxacin
[19] = (⅓) MIC compound + (½) MIC Oxacillin
[20] = (½) MIC compound + (¼) MIC Norfloxacin
[21] = (½) MIC compound + (⅓) MIC Oxacillin

| Compound | MIC [1] [µM] | MIC [2, 6] [µM] | MIC [2, 7] [µM] | MIC [2, 8] [µM] | MIC [2, 9] [µM] | MIC [2, 10] [µM] | MIC [2, 11] [µM] | MIC [2, 12] [µM] | MIC [2, 13] [µM] | MIC [2, 14] [µM] | MIC [2, 15] [µM] | MIC [2, 16] [µM] | MIC [2, 17] [µM] | IC50 (WI38 cells) [µM] | Resistance Evolved (S. aureus (ATCC 29213)) | Log Reduction (P. aeruginosa) | MICs greater than cells treated with compound alone, with norfloxacin (MRSA (ATCC BAA-44)) | MICs greater than cells treated with compound alone, with oxacillin (MRSA (ATCC BAA-44)) | Orders of Magnitude with Norfloxacin (MRSA (ATCC BAA-44)) | Orders of Magnitude with Oxacillin (MRSA (ATCC BAA-44)) | also measured |
| --- | --- | --- | --- | --- | --- | --- | --- | --- | --- | --- | --- | --- | --- | --- | --- | --- | --- | --- | --- | --- | --- |
| Brc1ccc(/N=N/c2c[nH]c3ccccc23)cc1 [Compound 8] | > 100 | 15 (≈ 4.5 µg/mL) | 3.1 to 6.3 (≈ 0.93 to 1.89 µg/mL) | 15 (≈ 4.5 µg/mL) | 6.3 (≈ 1.89 µg/mL) | 6.3 (≈ 1.89 µg/mL) | 6.3 (≈ 1.89 µg/mL) | 6.3 (≈ 1.89 µg/mL) | 12.5 (≈ 3.75 µg/mL) | 12.5 (≈ 3.75 µg/mL) | 6.3 (≈ 1.89 µg/mL) | 12.5 (≈ 3.75 µg/mL) | 12.5 (≈ 3.75 µg/mL) | 11.7 | No | 4 | two-fold | three-fold | >2 | >3 | killing of VRE in conjunction with antibiotics (VRE (ATCC 51299); 7.5 μM of compound 8 with vancomycin, tetracycline, or norfloxacin, FIG. 43): more effective at killing VRE; Log Reduction (MRSA [3]; compound 5 μM, Norfloxacin (25 μg/mL)): 2-3; Log Reduction (MRSA [3]; compound 5 μM, Oxacillin (50 μg/mL)): 3-4; A. baumannii colony populations on treatment with compound and PME or PMB ([4]; FIG. 51): reduced to sterility; % Kill (MRSA (ATCC BAA-44); [18]): 99%; Surviving MRSA (MRSA (ATCC BAA-44); [18]): 1.00 × 10^−2; % Kill (MRSA (ATCC BAA-44); [19]): 99.9%; Surviving MRSA (MRSA (ATCC BAA-44); [19]): 1.00 × 10^−3 |
| Clc1ccc(/N=N/c2c[nH]c3ccccc23)cc1 [Compound 9] | > 100 | 16 (≈ 4.09 µg/mL) | 12.5 (≈ 3.2 µg/mL) | 16 (≈ 4.09 µg/mL) | 12.5 (≈ 3.2 µg/mL) | 6.3 to 12.5 (≈ 1.61 to 3.2 µg/mL) | 12.5 (≈ 3.2 µg/mL) | 12.5 (≈ 3.2 µg/mL) | 12.5 (≈ 3.2 µg/mL) | 12.5 (≈ 3.2 µg/mL) | 12.5 (≈ 3.2 µg/mL) | 12.5 (≈ 3.2 µg/mL) | 12.5 (≈ 3.2 µg/mL) | 61.9 | No | 2 | two-fold | two-fold | >2 | >2 | Log Reduction (MRSA [5]): 2-3; killing of VRE in conjunction with antibiotics (VRE (ATCC 51299); 75 μM of compound 9 with tetracycline or norfloxacin, FIG. 44): more effective at killing VRE; MIC (S. aureus (ATCC 29213); Staphylococcus aureus, ATCC29213, read-out: Final MIC Apr. 16, 2015): 8 µM (≈ 2.05 µg/mL); Log Reduction (MRSA [3]; compound 8 μM, Norfloxacin (25 μg/mL)): 2-3; A. baumannii colony populations on treatment with compound and PME ([4]; 0.2 μg/mL of PME, compound 5 μM, FIGS. 50, 52): reduced to sterility; % Kill (MRSA (ATCC BAA-44); [20]): 99%; Surviving MRSA (MRSA (ATCC BAA-44); [20]): 1.00 × 10^−2; % Kill (MRSA (ATCC BAA-44); [21]): 99%; Surviving MRSA (MRSA (ATCC BAA-44); [21]): 1.00 × 10^−2 |
